How the values were obtained:
[1] = Tetrabenazine Antagonism (Anti-TBZ); format: in vivo, mouse (Carworth CF1 S female mice); conditions: for ED50: po, 1 h, mouse, p.o., tetrabenazine 32 mg/kg i.p. 30 min after compound
Method: Groups of 10 Carworth CF1 S female mice, 18-21 g each, were fasted 1.5 hours and were incubated with antagonist compounds at oral doses of 0, 5, 25, and 125 mg/kg or 0, 1, 3, 9, 27, and 81 mg/kg in 0.20 ml of 1% Methocel. The mice were challenged 30 minutes later with tetrabenazine (as the methanesulfonate), 32 mg/kg intraperitoneally (dissolved in 0.20 ml 0.05M KCl at pH 2.0). One hour after antagonist (30 minutes after tetrabenzaine), the mice were examined for signs of exploratory activity and ptosis (eyelid closure). Normal exploratory activity (relief from sedation) was recorded when a mouse lifted by the tail from a group of 10 in a testing box and placed on a stainless steel testing box lid (12.5 × 8 inches with 0.33 inch mesh) either turned its head horizontally 30° in both directions or moved to the edge of the screen within 10 seconds after being placed on the screen. Relief from ptosis was recorded when exactly two seconds after placing the mouse facing the observer, lid closure was less than 50% in both eyes.
The ED50 's for the compound of the present invention and for the molindone racemic mixture are given in the following table, along with certain appropriate ratios: […]

[2] = Exploratory Loss; format: in vivo, mouse; conditions: for ED50: po, mouse, p.o., loss of exploratory activity, column 3, read-out: ED50 mouse EXPL. LOSS
Text: The mouse is placed on a stainless steel wire mesh screen (8 × 12 inches, 3 mesh per inch, 1/4inch mesh openings) "shoe-box" lid (1inch high) and is observed for normal activities, such as nose movements, head movements with apparent visual examination of the area, and/or walking around on the screen. Normal mice respond within 2 to 3 seconds. Absence of or a marked depression of these activities for 5 seconds constitutes a loss of exploratory activity. The ED50 's for the compound of the present invention and for the molindone racemic mixture are given in the following table, along with certain appropriate ratios: […]

[3] = Rat Conditioned Avoidance Response (rat CAR); format: in vivo; conditions: for ED50: po, rat, p.o., block of conditioned avoidance response in 50% of rats, tested 1, 2 and 4 hours after dosing, column 4
Method: Blocking of CAR in rats at nontoxic doses correlates with major tranquilizer activity in man. Rats are trained to jump out of a pit onto a ledge to avoid shock when presented with a conditioned stimulus of light and sound. Three or four doses of durg are given to a group of 4-8 rats. The animals are tested 1, 2 and 4 hours after dosing. A quantal ED50 is calculated as the dose which would block the CAR in 50% of the rats. The results are given in mg/kg., p.o. (Table 1) The ED50 's for the compound of the present invention and for the molindone racemic mixture are given in the following table, along with certain appropriate ratios: […]

[4] = relief from ptosis, column 1, read-out: ED50 mouse ANTI-TBZ ptosis
[5] = relief from sedation (exploratory activity), column 2, read-out: ED50 mouse ANTI-TBZ expl. loss

| SMILES | ED50 [1, 4] [mg/kg] | ED50 [1, 5] [mg/kg] | ED50 [2] [mg/kg] | ED50 [3] [mg/kg] | antidepressant activity compared with the racemate ([1]; in words) | separation of the antidepressant activity from the sedative activity ([2]; as compared with the racemate, from the ratios in the table, in words) | sedative activity compared with the racemate ([2]; in words) | tranquilizer activity compared with the racemate ([3]; in words) |
| --- | --- | --- | --- | --- | --- | --- | --- | --- |
| CCc1c(C)[nH]c2c1C(=O)C(CN1CCOCC1)CC2 (racemic) [(±)-molindone, 3-ethyl-6,7-dihydro-2-methyl-5(morpholinomethyl)indol-4(5H)-one, reference compound] | 7.2 | 9 | 38 | 28 | – | – | – | – |
| CCc1c(C)[nH]c2c1C(=O)C(CN1CCOCC1)CC2 (single isomer, unassigned; (-)) [(-)-molindone] | 2.7 | 3.4 | 25 | 21 | significantly greater antidepressant activity | clear separation of the antidepressant activity from the sedative activity | approximately the same sedative and tranquilizer activity as the racemate | approximately the same sedative and tranquilizer activity as the racemate |
